Results published in patent publication US8362000B2, “Azetidinyl diamides as monoacylglycerol lipase inhibitors” (Janssen Pharmaceutica NV, priority 2009, dated 2013).
Positions count from the first letter of the chain named. Read-outs that look alike come from different tables or passages of the source.

What was measured:
MGL = target: T1, MGL (Rattus norvegicus, UniProt Q8R431); experiment: 2-AG accumulation assay in rat brain homogenate; assay type: biochemical; conditions: rat brain homogenate, 2-AG accumulation as percent of vehicle; for 2-AG accumulation, % of vehicle control at 0.1 µM: compound 0.1 μM, read-out: Rat Brain 2AG % VehCntrl (%) @ 0.1 μM; for 2-AG accumulation, % of vehicle control at 1 µM: compound 1 μM, read-out: Rat Brain 2AG % VehCntrl (%) @ 1 μM; for 2-AG accumulation, % of vehicle control at 10 µM: compound 10 μM, read-out: Rat Brain 2AG % VehCntrl (%) @ 10 μM; for 2-AG accumulation, % of vehicle control at 0.01 µM: compound 0.01 μM, read-out: Rat Brain 2AG % VehCntrl (%) @ 0.01 μM
T1 construct: one g rat brain was homogenized using a Polytron homogenizer; from tissue; host or cells: rat brain homogenate
T1 sequence (Q8R431 1-303): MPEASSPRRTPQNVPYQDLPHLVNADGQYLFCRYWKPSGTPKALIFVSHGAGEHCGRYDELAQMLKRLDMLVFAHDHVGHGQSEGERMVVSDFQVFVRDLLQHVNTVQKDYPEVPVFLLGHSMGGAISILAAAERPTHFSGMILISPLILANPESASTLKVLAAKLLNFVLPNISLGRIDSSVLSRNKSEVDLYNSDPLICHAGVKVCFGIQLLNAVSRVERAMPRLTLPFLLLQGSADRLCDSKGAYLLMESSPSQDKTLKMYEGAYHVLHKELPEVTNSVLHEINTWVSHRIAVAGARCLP

mutant MGL = target: T2, mutant MGL (Homo sapiens, UniProt Q99685, L169S/L176S); experiment: MGL ThermoFluor assay - mutant; assay type: binding
T2 sequence (Q99685 1-303 L169S/L176S): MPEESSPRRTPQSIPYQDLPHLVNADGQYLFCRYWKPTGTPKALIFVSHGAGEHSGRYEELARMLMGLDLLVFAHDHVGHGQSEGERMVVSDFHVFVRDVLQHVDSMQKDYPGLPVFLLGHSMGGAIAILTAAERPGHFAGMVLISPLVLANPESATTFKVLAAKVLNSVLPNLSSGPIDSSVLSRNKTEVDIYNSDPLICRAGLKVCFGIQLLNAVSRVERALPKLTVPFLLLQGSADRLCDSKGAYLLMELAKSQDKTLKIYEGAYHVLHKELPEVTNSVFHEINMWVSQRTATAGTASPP

[1] = test system: CFA-induced paw radiant heat hypersensitivity; experiment: CFA-induced paw radiant heat hypersensitivity; assay type: in vivo, rat; conditions: Rattus norvegicus, po, 30 mg/kg p.o., HPβCD, last time point 180 or 300 min
[2] = target: T3, purified wild type MGL (wt-MGLL 6H-11-313) (Homo sapiens, UniProt Q99685)
T3 sequence (Q99685 1-303): T2 sequence (Q99685 1-303 L169S/L176S) with S169L, S176L

[3] = ThermoFluor thermal stability binding assay, read-out: MGL mutant ThermoFluor Kd
[4] = group mean values, read-out: CFA thermal hypersensitivity Method 1: peak % reversal
[5] = individual animal values, read-out: CFA thermal hypersensitivity Method 2: peak % reversal
[6] = ThermoFluor concentration-response, read-out: MGL mutant ThermoFluor Kd

| Structure (SMILES) | 2-AG accumulation, % of vehicle control at 0.1 µM (MGL) | 2-AG accumulation, % of vehicle control at 1 µM (MGL) | 2-AG accumulation, % of vehicle control at 10 µM (MGL) | Kd (mutant MGL; [3]) | inhibition in vivo at 30 mg/kg [1, 4] | inhibition in vivo at 30 mg/kg [1, 5] | IC50 [2] | 2-AG accumulation, % of vehicle control at 0.01 µM (MGL) | Kd (mutant MGL; [6]) | Kd (mutant MGL; ThermoFluor, compound concentration measured by qNMR, read-out: MGL mutant ThermoFluor qKd (μM) (using qNMR conc.)) |
| --- | --- | --- | --- | --- | --- | --- | --- | --- | --- | --- |
| COc1cc(C(=O)N2CC(N3CCN(C(=O)c4cscn4)CC3)C2)ccc1-c1ccc(F)c(Cl)c1 [Cpd 261, 1-{1-[(3′-Chloro-4′-fluoro-2-methoxybiphenyl-4-yl)carbonyl]azetidin-3-yl}-4-(1,3-thiazol-4-ylcarbonyl)piperazine] | 148% | 525% | 856% | 0.0091 µM | 26.4% | 27.5% | 0.0084 µM | – | – | – |
| O=C(c1cscn1)N1CCN(C2CN(C(=O)c3ccc(-c4ccc(Cl)c(C(F)(F)F)c4)cc3Cl)C2)CC1 [Cpd 266, 1-(1-{[3,4′-Dichloro-3′-(trifluoromethyl)biphenyl-4-yl]carbonyl}azetidin-3-yl)-4-(1,3-thiazol-4-ylcarbonyl)piperazine] | – | 395% | – | 0.016 µM | 50.5% | 56.1% | 0.0498 µM | – | – | – |
| O=C(c1ccc2nc(-c3ccc(C(F)(F)F)cc3)oc2c1)N1CC(N2CCN(C(=O)c3nccs3)CC2)C1 [Cpd 314, 6-({3-[4-(1,3-Thiazol-2-ylcarbonyl)piperazin-1-yl]azetidin-1-yl}carbonyl)-2-[4-(trifluoromethyl)phenyl]-1,3-benzoxazole] | 237% | 512% | 553% | 0.0392 µM | 41% | 41.2% | < 0.005 µM | 175% | – | – |
| O=C(c1cc2cc(C(F)(F)F)ccc2s1)N1CC(N2CCN(C(=O)c3nccs3)CC2)C1 [Cpd 316, 1-(1,3-Thiazol-2-ylcarbonyl)-4-(1-{[5-(trifluoromethyl)-1-benzothiophen-2-yl]carbonyl}azetidin-3-yl)piperazine] | 265% | 760% | 694% | 0.0165 µM | 69.3% | 70.8% | < 0.005 µM | 243% | – | – |
| O=C(c1nccs1)N1CCN(C2CN(C(=O)c3sc4cc(C(F)(F)F)ccc4c3Cl)C2)CC1 [Cpd 324, 1-(1-{[3-Chloro-6-(trifluoromethyl)-1-benzothiophen-2-yl]carbon-yl}azetidin-3-yl)-4-(1,3-thiazol-2-ylcarbonyl)piperazine] | 941% | – | – | 0.0004 µM | 48.7% | 55.8% | < 0.005 µM | – | – | – |
| O=C(c1ccccc1)N1CCN(C2CN(C(=O)c3cc4ccc(C(F)(F)F)cc4s3)C2)CC1 [Cpd 325, 1-(Phenylcarbonyl)-4-(1-{[6-(trifluoromethyl)-1-benzothiophen-2-yl]carbonyl}azetidin-3-yl)piperazine] | – | 478% | – | 0.0927 µM | 62.1% | 63.1% | 0.0695 µM | – | – | – |
| O=C(c1ccccc1)N1CCN(C2CN(C(=O)c3sc4cc(Br)ccc4c3Cl)C2)CC1 [Cpd 331] | – | 310% | – | 0.0069 µM | 14.3% | – | 0.0457 µM | – | – | – |
| O=C(c1cscn1)N1CCN(C2CN(C(=O)c3sc4cc(Br)ccc4c3Cl)C2)CC1 [Cpd 333, 1-{1-[(6-Bromo-3-chloro-1-benzothiophen-2-yl)carbonyl]azetidin-3-yl}-4-(1,3-thiazol-4-ylcarbonyl)piperazine] | – | 291% | – | 0.0039 µM | 27.7% | – | 0.0162 µM | – | – | – |
| O=C(c1cscn1)N1CCN(C2CN(C(=O)c3cc4ccc(C(F)(F)F)cc4s3)C2)CC1 [Cpd 337] | 166% | 272% | 671% | 0.0498 µM | 14.3% | 17.6% | 0.013 µM | 103% | – | – |
| O=C(c1cscn1)N1CCN(C2CN(C(=O)c3sc4cc(-c5ccccc5)ccc4c3Cl)C2)CC1 [Cpd 345] | – | 744% | – | 0.0031 µM | 25% | 26.3% | < 0.005 µM | – | – | – |
| O=C(c1ccc(OCc2ccccn2)c(Cl)c1)N1CC(N2CCN(C(=O)c3nccs3)CC2)C1 [Cpd 407, 1-(1-{[3-Chloro-4-(pyridine-2-ylmethoxy)phenyl]carbon-yl}azetidin-3-yl)-4-(1,3-thiazol-2-ylcarbonyl)piperazine] | 127% | 441% | 743% | 0.0988 µM | 1.6% | 1.4% | 0.0506 µM | – | – | – |
| Cc1nc(-c2cccc(C(F)(F)F)c2)sc1C(=O)N1CC(N2CCN(C(=O)c3cscn3)CC2)C1 [Cpd 485, 1-[1-({4-Methyl-2-[3-(trifluoromethyl)phenyl]-1,3-thiazol-5-yl}carbonyl)azetidin-3-yl]-4-(1,3-thiazol-4-ylcarbonyl)piperazine] | 208% | 396% | 818% | – | 34.4% | 32.3% | 0.102 µM | – | 0.0257 µM | – |
| Cc1cc(-c2ccccc2)ccc1C(=O)N1CC(N2CCN(C(=O)c3cscn3)CC2)C1 [Cpd 488, 1-{1-[(3-Methylbiphenyl-4-yl)carbonyl]azetidin-3-yl}-4-(1,3-thiazol-4-ylcarbonyl)piperazine] | 219% | 248% | 681% | 0.321 µM | 78% | 85.5% | 0.382 µM | – | – | – |
| Cc1nc(-c2ccc(Cl)cc2)sc1C(=O)N1CC(N2CCN(C(=O)c3nccs3)CC2)C1 [Cpd 489, 1-(1-{[2-(4-Chlorophenyl)-4-methyl-1,3-thiazol-5-yl]carbonyl}azetidin-3-yl)-4-(1,3-thiazol-2-ylcarbonyl)piperazine] | 235% | 790% | 950% | – | 27.1% | 43.5% | 0.009 µM | 119% | 0.0104 µM | – |
| Cc1nc(-c2cccc(Cl)c2)sc1C(=O)N1CC(N2CCN(C(=O)c3nccs3)CC2)C1 [Cpd 490, 1-(1-{[2-(3-Chlorophenyl)-4-methyl-1,3-thiazol-5-yl]carbonyl}azetidin-3-yl)-4-(1,3-thiazol-2-ylcarbonyl)piperazine] | 343% | 756% | 886% | – | 18.4% | 19.7% | 0.0223 µM | 208% | 0.0084 µM | – |
| O=C(c1ccccc1)N1CCN(C2CN(C(=O)c3sc4cc(C(F)(F)F)ccc4c3F)C2)CC1 [Cpd 509] | – | 242% | – | – | 17.8% | – | 0.136 µM | – | 0.033 µM | – |
| O=C(c1ccccc1)N1CCN(C2CN(C(=O)c3ccc4c(ccn4-c4ccc(F)c(F)c4)c3)C2)CC1 [Cpd 571, 1-(3,4-Difluorophenyl)-5-({3-[4-(phenylcarbonyl)piperazin-1-yl]azetidin-1-yl}carbonyl)-1H-indole] | – | 307% | – | 0.046 µM | 133% | – | 0.028 µM | – | – | 0.08 µM |
